Source: patent US20040087633A1, “Methylidene oxazolidinone compound and preparation method thereof” (Korea Institute of Science and Technology, priority 2002, published 2004)
≈ marks a conversion by molar mass, not a printed value. Where two headings read alike, the source gives them in different places. One block for each compound: values may come before it.

How the values were obtained:
Test in all cases: Anti-microbial activity test in vitro (agar dilution MIC)
CRSA C1062 = assay type: cell-based, Staphylococcus aureus; details: Staphylococcus aureus, read-out: Minimum inhibition concentration (MIC)
Protocol: (§1) Anti-microbial activity test in vitro
(§2) Strains were cultivated for 18 hours at 37° C. in Agar Dilution method using Mueller Hinton Agar, and then plane plates inoculated with the strains by diluting them two times gradually were aligned in a row. Minimum inhibition concentration (MIC, μg/ml) for the representative compounds of the present invention, Linezolid (LZD) and vancomycin (VAN) were decided through visual observation, and the results are shown in the following tables 2 and 3.

CRSA C6043 = assay type: cell-based, Staphylococcus aureus; details: Staphylococcus aureus, read-out: Minimum inhibition concentration (MIC)
Protocol: as §1, §2

MRSA C2207 = assay type: cell-based, Staphylococcus aureus; details: Staphylococcus aureus, read-out: Minimum inhibition concentration (MIC)
Protocol: as §1, §2

MRSA C5100 = assay type: cell-based, Staphylococcus aureus; details: Staphylococcus aureus, read-out: Minimum inhibition concentration (MIC)
Protocol: as §1, §2

MRSA C6068 = assay type: cell-based, Staphylococcus aureus; details: Staphylococcus aureus, read-out: Minimum inhibition concentration (MIC)
Protocol: as §1, §2

MSSA C2214 = assay type: cell-based, Staphylococcus aureus; details: Staphylococcus aureus, read-out: Minimum inhibition concentration (MIC)
Protocol: as §1, §2

MSSA C7142 = assay type: cell-based, Staphylococcus aureus; details: Staphylococcus aureus, read-out: Minimum inhibition concentration (MIC)
Protocol: as §1, §2

E. faecalis ATCC29212 = assay type: cell-based; details: Enterococcus faecalis, read-out: Minimum inhibition concentration (MIC)
Protocol: as §1, §2

E. faecalis C6288 = assay type: cell-based; details: Enterococcus faecalis, read-out: Minimum inhibition concentration (MIC)
Protocol: as §1, §2

E. faecalis C6291 = assay type: cell-based; details: Enterococcus faecalis, read-out: Minimum inhibition concentration (MIC)
Protocol: as §1, §2

E. faecium C2252 = assay type: cell-based; details: Enterococcus faecium, read-out: Minimum inhibition concentration (MIC)
Protocol: as §1, §2

E. faecium C6301 = assay type: cell-based; details: Enterococcus faecium, read-out: Minimum inhibition concentration (MIC)
Protocol: as §1, §2

S. epidermidis ATCC12228 = assay type: cell-based; details: Staphylococcus epidermidis, read-out: Minimum inhibition concentration (MIC)
Protocol: as §1, §2

S. epidermidis C2230 = assay type: cell-based; details: Staphylococcus epidermidis, read-out: Minimum inhibition concentration (MIC)
Protocol: as §1, §2

S. epidermidis C2235 = assay type: cell-based; details: Staphylococcus epidermidis, read-out: Minimum inhibition concentration (MIC)
Protocol: as §1, §2

S. pyogenes ATCC8668 = assay type: cell-based; details: Streptococcus pyogenes, read-out: Minimum inhibition concentration (MIC)
Protocol: as §1, §2

S. pyogenes C6003 = assay type: cell-based; details: Streptococcus pyogenes, read-out: Minimum inhibition concentration (MIC)
Protocol: as §1, §2

S. pyogenes C6012 = assay type: cell-based; details: Streptococcus pyogenes, read-out: Minimum inhibition concentration (MIC)
Protocol: as §1, §2

VRE C6487 = assay type: cell-based, Enterococcus faecium; details: Enterococcus, read-out: Minimum inhibition concentration (MIC)
Protocol: as §1, §2

VRE C6488 = assay type: cell-based, Enterococcus faecium; details: Enterococcus, read-out: Minimum inhibition concentration (MIC)
Protocol: as §1, §2

SMILES: CN[C@H](CC(C)C)C(=O)N[C@H]1C(=O)N[C@@H](CC(N)=O)C(=O)N[C@H]2C(=O)N[C@H]3C(=O)N[C@H](C(=O)N[C@H](C(=O)O)c4cc(O)cc(O)c4-c4cc3ccc4O)[C@H](O)c3ccc(c(Cl)c3)Oc3cc2cc(c3O[C@@H]2O[C@H](CO)[C@@H](O)[C@H](O)[C@H]2O[C@H]2C[C@](C)(N)[C@H](O)[C@H](C)O2)Oc2ccc(cc2Cl)[C@H]1O [VAN, vancomycin, reference compound]
- MIC (CRSA C1062; 18 h): 2 µg/mL (≈ 1.38 µM)
- MIC (CRSA C6043; 18 h): 2 µg/mL (≈ 1.38 µM)
- MIC (MRSA C2207; MRSA, 18 h): 1 µg/mL (≈ 0.69 µM)
- MIC (MRSA C5100; MRSA, 18 h): 2 µg/mL (≈ 1.38 µM)
- MIC (MRSA C6068; MRSA, 18 h): 1 µg/mL (≈ 0.69 µM)
- MIC (MSSA C2214; MSSA, 18 h): 1 µg/mL (≈ 0.69 µM)
- MIC (MSSA C7142; MSSA, 18 h): 2 µg/mL (≈ 1.38 µM)
- MIC (E. faecalis ATCC29212; ATCC29212, 18 h): 4 µg/mL (≈ 2.76 µM)
- MIC (E. faecalis C6288; C6288, 18 h): 2 µg/mL (≈ 1.38 µM)
- MIC (E. faecalis C6291; C6291, 18 h): 2 µg/mL (≈ 1.38 µM)
- MIC (E. faecium C2252; C2252, 18 h): 1 µg/mL (≈ 0.69 µM)
- MIC (E. faecium C6301; C6301, 18 h): 1 µg/mL (≈ 0.69 µM)
- MIC (S. epidermidis ATCC12228; ATCC12228, 18 h): 1 µg/mL (≈ 0.69 µM)
- MIC (S. epidermidis C2230; C2230, 18 h): 2 µg/mL (≈ 1.38 µM)
- MIC (S. epidermidis C2235; C2235, 18 h): 2 µg/mL (≈ 1.38 µM)
- MIC (S. pyogenes ATCC8668; ATCC8668, 18 h): 0.12 µg/mL (≈ 0.0828 µM)
- MIC (S. pyogenes C6003; C6003, 18 h): 4 µg/mL (≈ 2.76 µM)
- MIC (S. pyogenes C6012; C6012, 18 h): 0.5 µg/mL (≈ 0.345 µM)
- MIC (VRE C6487; VRE, 18 h): > 32 µg/mL
- MIC (VRE C6488; VRE, 18 h): > 32 µg/mL

- MIC (CRSA C1062; CRSA C1062, Agar Dilution method, Mueller Hinton Agar, 18 hours at 37° C.): 4 µg/mL (≈ 11.9 µM)
- MIC (CRSA C6043; CRSA C6043, Agar Dilution method, Mueller Hinton Agar, 18 hours at 37° C.): 2 µg/mL (≈ 5.93 µM)
- MIC (MRSA C2207; MRSA C2207, Agar Dilution method, Mueller Hinton Agar, 18 hours at 37° C.): 4 µg/mL (≈ 11.9 µM)
- MIC (MRSA C5100; MRSA C5100, Agar Dilution method, Mueller Hinton Agar, 18 hours at 37° C.): 2 µg/mL (≈ 5.93 µM)
- MIC (MRSA C6068; MRSA C6068, Agar Dilution method, Mueller Hinton Agar, 18 hours at 37° C.): 2 µg/mL (≈ 5.93 µM)
- MIC (MSSA C2214; MSSA C2214, Agar Dilution method, Mueller Hinton Agar, 18 hours at 37° C.): 4 µg/mL (≈ 11.9 µM)
- MIC (MSSA C7142; MSSA C7142, Agar Dilution method, Mueller Hinton Agar, 18 hours at 37° C.): 4 µg/mL (≈ 11.9 µM)
- MIC (E. faecalis ATCC29212; E. faecalis ATCC29212, Agar Dilution method, Mueller Hinton Agar, 18 hours at 37° C.): 4 µg/mL (≈ 11.9 µM)
- MIC (E. faecalis C6288; E. faecalis C6288, Agar Dilution method, Mueller Hinton Agar, 18 hours at 37° C.): 2 µg/mL (≈ 5.93 µM)
- MIC (E. faecalis C6291; E. faecalis C6291, Agar Dilution method, Mueller Hinton Agar, 18 hours at 37° C.): 2 µg/mL (≈ 5.93 µM)
- MIC (E. faecium C2252; E. faecium C2252, Agar Dilution method, Mueller Hinton Agar, 18 hours at 37° C.): 2 µg/mL (≈ 5.93 µM)
- MIC (E. faecium C6301; E. faecium C6301, Agar Dilution method, Mueller Hinton Agar, 18 hours at 37° C.): 2 µg/mL (≈ 5.93 µM)
- MIC (S. epidermidis ATCC12228; S. epidermidis ATCC12228, Agar Dilution method, Mueller Hinton Agar, 18 hours at 37° C.): 0.5 µg/mL (≈ 1.48 µM)
- MIC (S. epidermidis C2230; S. epidermidis C2230, Agar Dilution method, Mueller Hinton Agar, 18 hours at 37° C.): 2 µg/mL (≈ 5.93 µM)
- MIC (S. epidermidis C2235; S. epidermidis C2235, Agar Dilution method, Mueller Hinton Agar, 18 hours at 37° C.): 2 µg/mL (≈ 5.93 µM)
- MIC (S. pyogenes ATCC8668; S. pyogenes ATCC8668, Agar Dilution method, Mueller Hinton Agar, 18 hours at 37° C.): 0.5 µg/mL (≈ 1.48 µM)
- MIC (S. pyogenes C6003; S. pyogenes C6003, Agar Dilution method, Mueller Hinton Agar, 18 hours at 37° C.): 2 µg/mL (≈ 5.93 µM)
- MIC (S. pyogenes C6012; S. pyogenes C6012, Agar Dilution method, Mueller Hinton Agar, 18 hours at 37° C.): 0.5 µg/mL (≈ 1.48 µM)
- MIC (VRE C6487; VRE C6487, Agar Dilution method, Mueller Hinton Agar, 18 hours at 37° C.): 2 µg/mL (≈ 5.93 µM)
- MIC (VRE C6488; VRE C6488, Agar Dilution method, Mueller Hinton Agar, 18 hours at 37° C.): 2 µg/mL (≈ 5.93 µM)
SMILES: CC(=O)NC[C@H]1CN(c2ccc(N3CCOCC3)c(F)c2)C(=O)O1 [LZD, Linezolid, reference compound]
